This is an account of results in patent US20160264536A1, “HETEROCYCLIC COMPOUND” (Takeda Pharmaceutical Company Limited, priority 2013, published 2016).

T1 sequence (O00408 whole entry): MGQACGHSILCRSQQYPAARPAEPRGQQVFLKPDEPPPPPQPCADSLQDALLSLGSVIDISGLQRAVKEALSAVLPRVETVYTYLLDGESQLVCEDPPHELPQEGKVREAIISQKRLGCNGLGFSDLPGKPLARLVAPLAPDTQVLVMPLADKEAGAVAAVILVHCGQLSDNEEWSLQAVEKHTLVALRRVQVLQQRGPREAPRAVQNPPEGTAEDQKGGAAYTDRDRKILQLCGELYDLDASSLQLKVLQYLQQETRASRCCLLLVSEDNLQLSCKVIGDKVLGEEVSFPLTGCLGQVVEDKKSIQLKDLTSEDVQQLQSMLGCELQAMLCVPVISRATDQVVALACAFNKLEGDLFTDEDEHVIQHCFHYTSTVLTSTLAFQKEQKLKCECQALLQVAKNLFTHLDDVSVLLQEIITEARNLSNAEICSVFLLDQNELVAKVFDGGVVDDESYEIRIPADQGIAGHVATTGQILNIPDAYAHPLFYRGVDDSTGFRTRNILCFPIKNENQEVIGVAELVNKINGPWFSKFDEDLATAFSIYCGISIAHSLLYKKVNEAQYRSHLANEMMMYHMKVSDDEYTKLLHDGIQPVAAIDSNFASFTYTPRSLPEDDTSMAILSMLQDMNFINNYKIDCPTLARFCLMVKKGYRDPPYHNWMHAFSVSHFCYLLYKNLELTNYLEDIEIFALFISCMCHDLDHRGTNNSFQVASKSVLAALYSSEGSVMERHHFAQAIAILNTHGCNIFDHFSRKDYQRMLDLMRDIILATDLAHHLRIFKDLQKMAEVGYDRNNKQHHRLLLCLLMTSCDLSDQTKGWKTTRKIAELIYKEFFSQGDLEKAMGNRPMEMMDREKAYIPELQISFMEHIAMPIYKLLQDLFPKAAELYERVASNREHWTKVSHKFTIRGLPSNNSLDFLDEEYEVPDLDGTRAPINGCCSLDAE

This assay addresses T1, human PDE2A3 enzyme (Homo sapiens, UniProt O00408).
T1 construct: Human PDE2A3 full-length gene was transduced into Sf9; His-tag; made in house; host or cells: Sf9 insect cells
Briefly: PDE enzyme inhibitory assay (SPA, [3H]cGMP substrate). It is filed as biochemical. The following applies: compound 1 μM, substrate [3H]cGMP 77 nM, read-out: inhibitory rate (%) (1 μM). The procedure:
PDE Enzyme Inhibitory Assay
Human PDE2A3 full-length gene was transduced into Sf9, and human PDE2A3 enzyme was purified by His-tag affinity column and gel filtration. The enzyme was stored at −70° C. until use. PDE activity was measured by using a SPA (Scintillation Proximity Assay) (GE Healthcare). To evaluate the inhibitory activity of the compound, 10 μl of serial diluted compounds were reacted with 20 μl of PDE enzyme in assay buffer (50 mM HEPES-NaOH, 8.3 mM MgCl2, 1.7 mM EGTA, 0.1% BSA (pH 7.4)) for 30 min at room temperature. Final concentration of DMSO in the reaction solution was 1%. Compounds were tested in duplicate in 96-well half-area plates (Corning) or 384-well OptiPlate (PerkinElmer). To start the reaction, 10 μl of substrate [^3H]cGMP (final concentration 77 nM, PerkinElmer) was added to a total volume of 40 μl. After reaction for 60 min at room temperature, 20 μl of 20 mg/mL yttrium SPA beads containing zinc sulfate was added to terminate the reaction. After being settled for further 1 hour, the assay plates were counted in a scintillation counter (PerkinElmer) to allow calculation of inhibition rate. Inhibition rate was calculated on the basis of 0% control wells with enzyme and DMSO, and 100% control wells without enzyme.
`COC[C@@H](NC(=O)c1cc(=O)[nH]c(-c2ccco2)n1)c1ccc(OC(F)(F)F)c(F)c1` [Example 121, N-((1S)-1-(3-fluoro-4-(trifluoromethoxy)phenyl)-2-methoxyethyl)-2-(2-furyl)-6-oxo-1,6-dihydropyrimidine-4-carboxamide]: the inhibition at 1 µM was found to be 95%. `COC[C@@H](NC(=O)c1cc(=O)[nH]c(-c2ccoc2)n1)c1ccc(OC(F)(F)F)c(F)c1` [Example 122, N-((1S)-1-(3-fluoro-4-(trifluoromethoxy)phenyl)-2-methoxyethyl)-2-(3-furyl)-6-oxo-1,6-dihydropyrimidine-4-carboxamide]: the inhibition at 1 µM worked out at 102%.

For `COCC(NC(=O)c1cc(=O)[nH]c(C2=CCCC2)n1)c1ccc(-n2cccn2)c(F)c1` (stereo not drawn) [Example 129, 2-(cyclopent-1-en-1-yl)-N-(1-(3-fluoro-4-(1H-pyrazol-1-yl)phenyl)-2-methoxyethyl)-6-oxo-1,6-dihydropyrimidine-4-carboxamide], the inhibition at 1 µM turned out to be 98%. With `COC[C@@H](NC(=O)c1cc(=O)[nH]c(-c2ncc(OC)cc2OC)n1)c1ccc(OC(F)(F)F)c(F)c1` [Example 152, 2-(3,5-dimethoxypyridin-2-yl)-N-((1S)-1-(3-fluoro-4-(trifluoromethoxy)phenyl)-2-methoxyethyl)-6-oxo-1,6-dihydropyrimidine-4-carboxamide], the inhibition at 1 µM came out at 96%. As to `COC[C@@H](NC(=O)c1cc(=O)[nH]c(C2(C)CC2)n1)c1ccc(OC(F)(F)F)cc1` [Example 153, N-((1S)-2-methoxy-1-(4-(trifluoromethoxy)phenyl)ethyl)-2-(1-methylcyclopropyl)-6-oxo-1,6-dihydropyrimidine-4-carboxamide], the inhibition at 1 µM turned out to be 100%. With `Cn1cc(-c2cncc(C(=O)N[C@@H](c3ccc(OC(F)(F)F)c(F)c3)C(C)(C)O)n2)cn1` [Example 158, N-((1S)-1-(3-fluoro-4-(trifluoromethoxy)phenyl)-2-hydroxy-2-methylpropyl)-6-(1-methyl-1H-pyrazol-4-yl)pyrazine-2-carboxamide] the figure was 97%. The figure for `CO[C@H]1CCN(c2cncc(C(=O)N[C@@H](c3ccc(OC(F)(F)F)c(F)c3)C(C)(C)O)n2)C1` [Example 163, N-((1S)-1-(3-fluoro-4-(trifluoromethoxy)phenyl)-2-hydroxy-2-methylpropyl)-6-((3S)-3-methoxypyrrolidin-1-yl)pyrazine-2-carboxamide] is 94%; for `COC[C@@H](NC(=O)c1cc(=O)[nH]c(C2=CCC(OC)C2)n1)c1ccc(OC(F)(F)F)c(F)c1` (stereo partly drawn) [Example 171, N-((1S)-1-(3-fluoro-4-(trifluoromethoxy)phenyl)-2-methoxyethyl)-2-(4-methoxycyclopent-1-en-1-yl)-6-oxo-1,6-dihydropyrimidine-4-carboxamide] it is 103%; for `COC[C@@H](NC(=O)c1cc(=O)[nH]c(-c2ncc(OC)cc2F)n1)c1ccc(OC(F)(F)F)c(F)c1` [Example 178, 2-(3-fluoro-5-methoxypyridin-2-yl)-N-((1S)-1-(3-fluoro-4-(trifluoromethoxy)phenyl)-2-methoxyethyl)-6-oxo-1,6-dihydropyrimidine-4-carboxamide] it is 99%. As for `COC[C@@H](NC(=O)c1cc(=O)[nH]c(-c2ncc(OC)cc2C)n1)c1ccc(OC(F)(F)F)c(F)c1` [Example 179, N-((1S)-1-(3-fluoro-4-(trifluoromethoxy)phenyl)-2-methoxyethyl)-2-(5-methoxy-3-methylpyridin-2-yl)-6-oxo-1,6-dihydropyrimidine-4-carboxamide], the inhibition at 1 µM is 94%. Take `COC[C@@H](NC(=O)c1cc(=O)[nH]c(-c2ncc(OC)cc2Cl)n1)c1ccc(OC(F)(F)F)c(F)c1` [Example 184, 2-(3-chloro-5-methoxypyridin-2-yl)-N-((1S)-1-(3-fluoro-4-(trifluoromethoxy)phenyl)-2-methoxyethyl)-6-oxo-1,6-dihydropyrimidine-4-carboxamide]: the inhibition at 1 µM is 95%. With `COC[C@@H](NC(=O)c1cc(=O)[nH]c(-c2ncc(C3CC3)cc2F)n1)c1ccc(OC(F)(F)F)c(F)c1` [Example 185, 2-(5-cyclopropyl-3-fluoropyridin-2-yl)-N-((1S)-1-(3-fluoro-4-(trifluoro-methoxy)phenyl)-2-methoxyethyl)-6-oxo-1,6-dihydropyrimidine-4-carboxamide] the figure was 94%; with `COC[C@@H](NC(=O)c1cc(=O)[nH]c(-c2ncc(OC(F)F)cc2F)n1)c1ccc(OC(F)(F)F)c(F)c1` [Example 186, 2-(5-(difluoromethoxy)-3-fluoropyridin-2-yl)-N-((1S)-1-(3-fluoro-4-(trifluoro-methoxy)phenyl)-2-methoxyethyl)-6-oxo-1,6-dihydropyrimidine-4-carboxamide], 92%. With `CCOc1cnc(-c2nc(C(=O)N[C@H](COC)c3ccc(OC(F)(F)F)c(F)c3)cc(=O)[nH]2)c(OCC)c1` [Example 187, 2-(3,5-diethoxypyridin-2-yl)-N-((1S)-1-(3-fluoro-4-(trifluoromethoxy)phenyl)-2-methoxyethyl)-6-oxo-1,6-dihydropyrimidine-4-carboxamide], the inhibition at 1 µM amounted to 105%. With `COC[C@@H](NC(=O)c1cc(=O)[nH]c(-c2ncc(C3CC3)cc2OC)n1)c1ccc(OC(F)(F)F)c(F)c1` [Example 189, 2-(5-cyclopropyl-3-methoxypyridin-2-yl)-N-((1S)-1-(3-fluoro-4-(trifluoro-methoxy)phenyl)-2-methoxyethyl)-6-oxo-1,6-dihydropyrimidine-4-carboxamide], the inhibition at 1 µM worked out at 99%.
